Results reported in publication PMC3079577 (Nature, 2010).
Each block holds one compound with its values, some of them ahead of it.

Tests used:
[1] = target: LeuT^K (Lys 288 Ala LeuT) (Aquifex aeolicus, UniProt O67854, K288A)
Tyr 108 Phe–LeuT^K [2] = target: T1, Tyr 108 Phe–LeuT^K (Aquifex aeolicus, UniProt O67854, K288A/Y108F); experiment: Isothermal titration calorimetry, Leu binding to Tyr 108 Phe mutant; settings: ITC, 25 °C, pH 7.0
LeuT Leu 400 Cys mutant = LeuT Leu 400 Cys mutant (Aquifex aeolicus, UniProt O67854, L400C); experiment: Scintillation proximity assay, [3H]Leu binding to Leu 400 Cys mutant; settings: SPA, 400 nM protein, Fig 2b; listed as [^3H]Leu
wild-type LeuT [3] = target: T2, wild-type LeuT (Aquifex aeolicus, UniProt O67854); experiment: Equilibrium dialysis, [3H]Leu binding to wild-type LeuT; settings: single-site fit, 23 °C, 6 h, listed as [^3H]Leu
LeuT Leu 400 Ala mutant = LeuT Leu 400 Ala mutant (Aquifex aeolicus, UniProt O67854, L400A); experiment: Scintillation proximity assay, [3H]Leu binding to Leu 400 Ala mutant; settings: SPA, 400 nM protein, Fig 2b; listed as [^3H]Leu
wild-type LeuT [4] = target: T2, wild-type LeuT; experiment: Isothermal titration calorimetry, Leu binding to wild-type LeuT; settings: ITC, 25 °C, pH 7.0
wild-type LeuT [5] = target: T2, wild-type LeuT; experiment: Scintillation proximity assay, [3H]Leu binding to wild-type LeuT; settings: SPA
Tyr 108 Phe–LeuT^K [6] = target: T1, Tyr 108 Phe–LeuT^K; experiment: Equilibrium dialysis, [3H]Leu binding to Tyr 108 Phe mutant; settings: single-site fit, 23 °C, 6 h, listed as [^3H]Leu
LeuT = settings: cited from earlier work
[7] = two-site, ordered-binding model fit, parameters not well fitted

SMILES: C[C@H](N)C(=O)O [Ala, alanine]
Km ([1]; read-out: Km (Michaelis constant), pH 5, 200 mM inward Na+ gradient, 27 °C, no valinomycin): 0.79 ± 0.06 µM | Hill slope nH ([1]; steady-state data fitted to the Hill equation): 0.96±0.03 | Vmax ([1]; two-site, ordered-binding model fit): 10,965±308 pmol min^−1 mg^−1 | apparent dissociation constant KS [1, 7]: 6.8 ± 22 nM | dissociation coefficient α [1, 7]: 114±360

ΔH of binding (Tyr 108 Phe–LeuT^K [2]): -1.92 ± 0.03 kcal/mol | Stoichiometry N (Tyr 108 Phe–LeuT^K [2]; single-site model): 0.79±0.01 mol/mol LeuT | Stoichiometry (LeuT Leu 400 Cys mutant): about 0.8 mol/mol LeuT | Stoichiometry (wild-type LeuT [3]): 0.73±0.03 mol/mol LeuT | Stoichiometry (LeuT Leu 400 Ala mutant): about 0.8 mol/mol LeuT | ΔH of binding (wild-type LeuT [4]): -3.93 ± 0.02 kcal/mol | −TΔS of binding (wild-type LeuT [4]): -6.01 ± 0.13 kcal/mol | Stoichiometry N (substrate-to-LeuT) (wild-type LeuT [4]; single-site model): 0.70±0.01 mol/mol LeuT | Stoichiometry (wild-type LeuT [5]; 400 nM LeuT (~20 Kd), 25–1,200 nM [3H]Leu, Fig 2b): about 0.8 mol/mol LeuT | Stoichiometry (Tyr 108 Phe–LeuT^K [6]): 0.72±0.02 mol/mol LeuT
SMILES: CC(C)C[C@H](N)C(=O)O [Leu, L-leucine]

Effect of clomipramine on binding of Leu to wild-type LeuT (wild-type LeuT [5]; 10 nM LeuT, 1 mM clomipramine): no change
SMILES: CN(C)CCCN1c2ccccc2CCc2ccc(Cl)cc21 [clomipramine]
Mode of inhibition of LeuT transport (LeuT): non-competitive inhibitor
